Key:
[1] = O/W emulsion, substantivity on skin model (water resistance, watering test); format: physicochemical, sheep; conditions: amount found after 20 min watering relative to unwatered sample, isopropanol extract, GC, converted to the logarithm
Procedure: (§1) The amounts of the cosmetic auxiliaries found in the phase to be cared for are compared with the amount found in the cosmetic phase (relative partition parameters). These values are converted to the logarithm and entered as activity values into the regression table (Table 1). Using various methods, regression against the COSMO-RS and other descriptors (e.g. clogP and boiling point) are carried out, and the best correlation according to the validation is selected. In all of the regression equations belonging to the examples, cosmetic auxiliaries with a deviation in the regression of more than +/−0.43 log units from the experimental value are defined as outliers. […] In the next step, the COSMO-RS regression equation is linked to the regression table which contains all descriptors for all cosmetic auxiliaries. The use of the COSMO-RS regression equation on all cosmetic auxiliaries gives the prediction for the logarithmic relative partition parameters for all cosmetic auxiliaries. These values are then used for the manufacture of cosmetic products. The procedure is analogous in all examples.
(§2) The example reflects the substantivity of a sunscreen emulsion. The emulsion is applied to a skin model (sheep shorn wool, because of the content of wool grease), and the substantivity thereto is tested using a watering test. The emulsion is prepared in the generally customary manner. The UV filters and a mixture of 39 odorants are incorporated in accordance with the formulations. 0.10 g of this emulsion is applied to a section of the skin model 5×10 cm in size. After drying for 30 min, the sample is stirred for 20 min in 4.5 l of water at room temperature. The sample is left to dry for 12 hours and then boiled for 10 min with 60 ml of isopropanol in a closed system. The extract is transferred to a measuring flask and made up to 100 ml. 0.10 g of the emulsion is applied to another section of the skin model. After drying for 12 hours, it is extracted with isopropanol as above. The extracts are injected in equal amounts one after the other into a GC injector, and gas chromatograms are recorded. The amounts of the UV filters and odorants found in the extracts are compared with one another (relative partition parameters). The analytical results are then used mathematically as described above.

[2] = W/O emulsion, substantivity on skin model (water resistance, watering test); format: physicochemical, sheep; conditions: amount found after 20 min watering relative to unwatered sample, isopropanol extract, GC, converted to the logarithm
Procedure: as §1, §2

SMILES	Activity (logarithmic partition parameter for substantivity on a skin model) [1]	Activity (logarithmic partition parameter for substantivity on a skin model) [2]
O=C(OCc1ccccc1)c1ccccc1O [Benzyl salicylate]	−0.1300	−0.1480
C=C1C2CCC(C2)C1(C)C (centres unmarked) [Camphene]		−0.2420
C[C@@H]1CC[C@H]2C(C)(C)[C@H]3C[C@@]12CC[C@@]3(C)O [Cedrol]	−0.0320	−0.0111
CC(=O)O[C@]1(C)CC[C@@]23C[C@@H]1C(C)(C)[C@@H]2CC[C@H]3C [Cedryl acetate]	−0.0330	−0.0170
O=C1CCCCCCCCCCCC(=O)OCCO1 [Ethylene brassylate]	0.0010	−0.0476
CCCCCC/C(C=O)=C\c1ccccc1 [Hexylcinnamaldehyde, alpha]	−0.1250	−0.1399
CC(=O)/C=C/C1C(C)=CCCC1(C)C (stereo not drawn) [Ionone alpha]		−0.0120
CC(=O)/C=C/C1=C(C)CCCC1(C)C [Ionone, beta]		0.1556
CC(C)CCOC(=O)c1ccccc1O [Isoamyl salicylate]	−0.0960	−0.2740
CC(C=O)Cc1ccc(C(C)(C)C)cc1 (centres unmarked) [Lilial]	−0.1280	−0.2120
COc1ccc(C(=O)c2ccccc2)c(O)c1 [Neo Heliopan ® BB, Benzophenone-3]	−0.1595	−0.2689
COc1ccc(C=CC(=O)OCCC(C)C)cc1 [Neo Heliopan ® E1000, Isoamyl p-Methoxycinnamate]	−0.0762	−0.2128
CC1CC(OC(=O)c2ccccc2O)CC(C)(C)C1 (centres unmarked) [Neo Heliopan ® HMS, Homosalate]	−0.1571	−0.2733
CC1CCC(C(C)C)C(OC(=O)c2ccccc2N)C1 (centres unmarked) [Neo Heliopan ® MA, Menthyl anthranilate]	−0.1314	−0.2300
Cc1ccc(C=C2C(=O)C3(C)CCC2C3(C)C)cc1 (centres unmarked) [Neo Heliopan ® MBC, 4-Methylbenzylidene Camphor]	−0.0966	−0.2018
COc1ccc(C(=O)CC(=O)c2ccc(C(C)(C)C)cc2)cc1 [Neo Heliopan ® NH 357]	−0.1922	−0.1879
CCCCC(CC)COC(=O)c1ccccc1O (centres unmarked) [Neo Heliopan ® OS, 2-Ethylhexylsalicylate]	−0.1464	−0.2497
CC1=CCC2CC1C2(C)C (stereo not drawn) [alpha-Pinene]		−0.2470

— patent US20020146441A1, “Selection method for cosmetic auxiliaries” (priority 2000, published 2002)
